Columns and labels:
Test in all cases: Large panel kinase profiling
Assay type in all cases: biochemical
Settings in all cases: 1 μM test article, 1 mM ATP
[1] = biological target: T1, CSNK1E/CK1E (Homo sapiens, UniProt P49674)
T1 construct: AssayQuant Technologies, Inc. (service laboratory)
In short: (§1)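 Activity is measured in real time from the CSox sensor's fluorescence at 485 nm after 360 nm excitation, sampled every minute. Assays run at 30° C. with 1 mM ATP and a single 1 μM compound dose.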

[2] = biological target: T2, PRKCI/PKCI (Homo sapiens, UniProt P41743)
T2 sequence (P41743 1-596): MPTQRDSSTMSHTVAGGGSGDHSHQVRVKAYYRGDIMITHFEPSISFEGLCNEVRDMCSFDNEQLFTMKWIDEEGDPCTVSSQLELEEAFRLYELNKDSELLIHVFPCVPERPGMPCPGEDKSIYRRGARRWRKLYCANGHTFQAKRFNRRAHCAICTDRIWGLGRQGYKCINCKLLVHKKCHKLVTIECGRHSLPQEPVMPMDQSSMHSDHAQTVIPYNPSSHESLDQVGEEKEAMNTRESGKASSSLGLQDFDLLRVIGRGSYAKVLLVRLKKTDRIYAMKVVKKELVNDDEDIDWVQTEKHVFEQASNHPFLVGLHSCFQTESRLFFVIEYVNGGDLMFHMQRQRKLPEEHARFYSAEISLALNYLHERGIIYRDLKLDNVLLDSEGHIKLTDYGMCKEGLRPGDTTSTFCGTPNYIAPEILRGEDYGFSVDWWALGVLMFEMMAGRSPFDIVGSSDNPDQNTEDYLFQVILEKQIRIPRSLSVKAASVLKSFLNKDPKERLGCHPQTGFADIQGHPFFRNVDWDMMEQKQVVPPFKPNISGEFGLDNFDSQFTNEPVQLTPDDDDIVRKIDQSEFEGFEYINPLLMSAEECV
In short: as §1

[3] = biological target: T3, SGK3 (Homo sapiens, UniProt Q96BR1)
T3 construct: AssayQuant Technologies, Inc. (contract assay)
T3 sequence (Q96BR1 1-496): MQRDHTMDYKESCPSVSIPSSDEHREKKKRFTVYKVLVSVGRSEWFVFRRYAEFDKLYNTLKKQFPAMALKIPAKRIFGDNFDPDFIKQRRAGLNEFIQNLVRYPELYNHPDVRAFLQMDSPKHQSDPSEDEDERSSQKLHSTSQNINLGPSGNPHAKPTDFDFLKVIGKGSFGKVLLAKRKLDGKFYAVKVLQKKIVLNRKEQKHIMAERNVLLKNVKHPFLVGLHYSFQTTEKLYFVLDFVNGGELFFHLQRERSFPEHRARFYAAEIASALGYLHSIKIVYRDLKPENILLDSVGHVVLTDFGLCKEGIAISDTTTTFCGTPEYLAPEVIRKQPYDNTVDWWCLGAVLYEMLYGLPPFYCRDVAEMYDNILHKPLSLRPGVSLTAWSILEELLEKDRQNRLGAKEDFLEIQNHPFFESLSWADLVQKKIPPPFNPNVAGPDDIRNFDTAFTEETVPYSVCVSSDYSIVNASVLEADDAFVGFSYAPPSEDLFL
In short: as §1

[4] = biological target: PRKACG (Homo sapiens, UniProt P22612)
Sequence of PRKACG (P22612 whole entry, species assumed): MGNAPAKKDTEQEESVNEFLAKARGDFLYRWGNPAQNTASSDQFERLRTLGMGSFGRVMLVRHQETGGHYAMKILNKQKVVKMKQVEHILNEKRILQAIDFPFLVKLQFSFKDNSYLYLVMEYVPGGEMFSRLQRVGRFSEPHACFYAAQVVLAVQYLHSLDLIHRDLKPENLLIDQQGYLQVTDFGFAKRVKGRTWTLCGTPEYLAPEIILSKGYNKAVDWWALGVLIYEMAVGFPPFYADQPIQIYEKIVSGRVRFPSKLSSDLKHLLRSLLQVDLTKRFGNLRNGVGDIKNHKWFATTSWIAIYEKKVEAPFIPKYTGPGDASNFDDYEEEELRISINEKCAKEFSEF
In short: as §1

[5] = biological target: PRKCD/CPKCD (Homo sapiens, UniProt Q05655)
Sequence of PRKCD/CPKCD (Q05655 whole entry): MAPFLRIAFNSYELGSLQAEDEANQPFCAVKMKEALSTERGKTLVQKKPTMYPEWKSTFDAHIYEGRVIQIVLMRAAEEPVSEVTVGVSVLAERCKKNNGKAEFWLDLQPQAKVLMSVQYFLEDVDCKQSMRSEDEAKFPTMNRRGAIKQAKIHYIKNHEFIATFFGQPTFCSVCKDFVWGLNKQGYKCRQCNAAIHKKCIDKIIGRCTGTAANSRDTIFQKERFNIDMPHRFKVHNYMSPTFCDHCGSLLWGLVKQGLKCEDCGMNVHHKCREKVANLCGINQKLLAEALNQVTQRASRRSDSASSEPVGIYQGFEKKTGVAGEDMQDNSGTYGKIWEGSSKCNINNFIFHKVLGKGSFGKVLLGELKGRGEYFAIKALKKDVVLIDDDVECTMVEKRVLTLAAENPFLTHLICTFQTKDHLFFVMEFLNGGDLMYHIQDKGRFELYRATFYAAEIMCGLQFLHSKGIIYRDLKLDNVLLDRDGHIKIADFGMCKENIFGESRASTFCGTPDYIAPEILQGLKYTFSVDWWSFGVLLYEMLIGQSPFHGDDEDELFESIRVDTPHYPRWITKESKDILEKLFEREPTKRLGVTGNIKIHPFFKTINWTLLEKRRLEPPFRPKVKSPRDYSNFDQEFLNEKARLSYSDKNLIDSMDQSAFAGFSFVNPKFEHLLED
In short: as §1

[6] = biological target: T4, FRK (Homo sapiens, UniProt P42685)
T4 construct: AssayQuant Technologies, Inc. (service provider)
T4 sequence (P42685 whole entry, species assumed): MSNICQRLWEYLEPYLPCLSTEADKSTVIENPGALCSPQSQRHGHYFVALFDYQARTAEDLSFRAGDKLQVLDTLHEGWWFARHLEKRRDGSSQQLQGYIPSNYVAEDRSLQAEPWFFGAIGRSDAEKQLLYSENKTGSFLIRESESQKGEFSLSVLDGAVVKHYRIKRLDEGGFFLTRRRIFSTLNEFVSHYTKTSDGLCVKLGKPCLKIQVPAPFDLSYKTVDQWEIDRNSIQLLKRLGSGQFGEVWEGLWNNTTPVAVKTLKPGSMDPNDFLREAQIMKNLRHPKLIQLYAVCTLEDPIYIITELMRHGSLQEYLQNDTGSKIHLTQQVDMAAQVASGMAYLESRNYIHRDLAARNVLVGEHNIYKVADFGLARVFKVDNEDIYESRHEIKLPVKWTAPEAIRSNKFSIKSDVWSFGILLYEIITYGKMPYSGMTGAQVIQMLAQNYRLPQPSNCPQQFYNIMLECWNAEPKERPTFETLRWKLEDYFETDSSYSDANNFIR
In short: as §1

[7] = biological target: T5, MAP3K12 (Homo sapiens, UniProt Q12852)
T5 sequence (Q12852 1-859): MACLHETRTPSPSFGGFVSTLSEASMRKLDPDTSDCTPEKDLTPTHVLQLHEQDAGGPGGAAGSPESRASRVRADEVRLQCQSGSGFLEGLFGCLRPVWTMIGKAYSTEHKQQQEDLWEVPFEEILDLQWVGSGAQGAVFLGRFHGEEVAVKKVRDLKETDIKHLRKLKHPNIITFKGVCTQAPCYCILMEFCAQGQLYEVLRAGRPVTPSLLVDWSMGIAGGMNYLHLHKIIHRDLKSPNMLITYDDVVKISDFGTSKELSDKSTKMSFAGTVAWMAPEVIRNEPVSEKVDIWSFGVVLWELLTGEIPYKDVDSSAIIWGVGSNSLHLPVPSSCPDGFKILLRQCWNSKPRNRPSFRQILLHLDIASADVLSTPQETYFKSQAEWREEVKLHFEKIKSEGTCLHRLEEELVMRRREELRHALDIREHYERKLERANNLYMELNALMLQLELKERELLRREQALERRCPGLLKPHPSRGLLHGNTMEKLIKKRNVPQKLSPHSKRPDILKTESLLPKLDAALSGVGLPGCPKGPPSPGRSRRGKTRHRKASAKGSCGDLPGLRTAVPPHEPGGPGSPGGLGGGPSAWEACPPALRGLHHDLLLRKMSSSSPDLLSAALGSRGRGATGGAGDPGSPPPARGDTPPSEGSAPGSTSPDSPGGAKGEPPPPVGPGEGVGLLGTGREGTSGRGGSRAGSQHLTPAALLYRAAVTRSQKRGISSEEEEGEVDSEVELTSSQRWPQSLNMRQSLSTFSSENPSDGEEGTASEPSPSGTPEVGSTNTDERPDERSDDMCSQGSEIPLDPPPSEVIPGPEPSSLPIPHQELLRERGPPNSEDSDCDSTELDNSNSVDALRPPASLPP
In short: as §1

[8] = biological target: T6, MAPK10/JNK3 (Homo sapiens, UniProt P53779)
T6 construct: AssayQuant Technologies, Inc. (service provider)
T6 sequence (P53779 whole entry): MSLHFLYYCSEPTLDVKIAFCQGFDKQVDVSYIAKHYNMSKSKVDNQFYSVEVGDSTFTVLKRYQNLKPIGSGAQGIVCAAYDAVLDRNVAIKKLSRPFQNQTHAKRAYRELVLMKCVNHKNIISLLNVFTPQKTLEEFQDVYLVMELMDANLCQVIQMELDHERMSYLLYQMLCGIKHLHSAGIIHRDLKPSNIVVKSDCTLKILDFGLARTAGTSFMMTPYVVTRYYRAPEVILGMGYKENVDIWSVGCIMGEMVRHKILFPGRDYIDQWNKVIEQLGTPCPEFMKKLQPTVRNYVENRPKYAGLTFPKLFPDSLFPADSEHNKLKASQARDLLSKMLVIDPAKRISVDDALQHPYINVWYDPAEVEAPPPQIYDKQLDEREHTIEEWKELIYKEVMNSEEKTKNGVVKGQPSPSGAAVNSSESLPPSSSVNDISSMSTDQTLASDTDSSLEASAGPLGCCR
In short: as §1

T1 sequence (P49674 whole entry): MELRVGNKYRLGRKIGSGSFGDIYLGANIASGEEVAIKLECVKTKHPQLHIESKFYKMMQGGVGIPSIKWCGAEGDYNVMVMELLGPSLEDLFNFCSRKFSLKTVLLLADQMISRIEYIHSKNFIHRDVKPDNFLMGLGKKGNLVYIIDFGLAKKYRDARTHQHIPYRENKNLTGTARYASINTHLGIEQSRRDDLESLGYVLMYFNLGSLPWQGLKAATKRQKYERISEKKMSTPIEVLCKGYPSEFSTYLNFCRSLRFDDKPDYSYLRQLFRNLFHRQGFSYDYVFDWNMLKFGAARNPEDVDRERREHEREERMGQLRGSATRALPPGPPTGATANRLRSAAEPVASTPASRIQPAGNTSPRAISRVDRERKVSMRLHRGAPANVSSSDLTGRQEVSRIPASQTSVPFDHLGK

SMILES	inhibition at 1 µM [1] [%]	inhibition at 1 µM [2] [%]	inhibition at 1 µM [3] [%]	inhibition at 1 µM [4] [%]	inhibition at 1 µM [5] [%]	inhibition at 1 µM [6] [%]	inhibition at 1 µM [7] [%]	inhibition at 1 µM [8] [%]
C=CC(=O)N1CCCC(c2c(F)cc(C(N)=O)c3[nH]c4c(c23)CCCCC4)C1 (single isomer, unassigned) [Compound 5-6]	-4.2	-0.6	-28.1	4.2	-42.2	4.2	5	-13
C=CC(=O)N1CCC[C@@H](c2c(F)cc(C(N)=O)c3[nH]c4c(c23)CC2(CC4)CC2)C1 [Compound 6-2, (S)-5-(1-acryloylpiperidin-3-yl)-6-fluoro-1,2,4,9-tetrahydrospiro[carbazole-3,1′-cyclopropane]-8-carboxamide]	-7.4	9	-19.9	-27.2	-0.1	-2.8	-18.8	32.1
C=CC(=O)N1CCC[C@@H](c2c(F)cc(C(N)=O)c3[nH]c4c(c23)CCC4)C1 [Compound 10-2, (S)-8-(1-acryloylpiperidin-3-yl)-7-fluoro-1,2,3,4-tetrahydrocyclo-penta[b]indole-5-carboxamide]	15.1	-3.3	-32.5	-19.2	-0.6	-4.1	-27.7	-4
